The text below walks through data of PubChem BioAssay AID179 (DTP/NCI, 2004).

This assay deals with CEM cells HIV-1 protection, formazan growth assay. The assay can be described thus: NCI AIDS Antiviral Assay. To be noted: for IC50: measured here: growth of uninfected CEM cells. In outline: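 Human CEM cells, uninfected and HIV-1-infected, received five drug concentrations, and growth was read by soluble formazan assay. Compounds giving at least 50% protection were retested; reproducible 100% protection defined confirmed active.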

SMILES strings stand for the structures. Calls of active or inactive are those of the source.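 Rule for the calls: active = compounds giving half or more protection of infected cells from virus-caused growth loss, again on retest; inactive = the rest.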

Usually EC50 stands for the concentration that produces a half-maximal response. By IC50 is commonly meant the point on the concentration scale where inhibition reaches its midpoint. Higher therefore signals lower potency. With `Cc1nc2cc3[nH]c4ccccc4c(=O)c3cc2s1`, the EC50 was over 148 µM and the IC50 was over 148 µM.

Take `O=P1(Oc2ccc(Cl)cc2)OCCS1` (stereo not drawn): the EC50 was over 200 µM and the IC50 is over 200 µM.

`CCOC(=O)CC[C@H](NC(=O)c1nc[nH]c1[N+](=O)[O-])C(=O)OCC`: the EC50 is over 200 µM and the IC50 was over 200 µM.

Turning to `COC(=O)C1(Cc2ccccc2C)Cc2ccc(C)cc2C1=O` (stereo not drawn), the EC50 is over 200 µM and the IC50 amounted to 57.5 µM.

`C=C1C(=O)OC2/C=C(\C)CC(O)/C=C(/CO)CC(OC(=O)/C(C)=C/C)C12` (stereo not drawn): the EC50 was over 100 µM and the IC50 came to 53.7 µM.

With `OCC1CC2c3[nH]c4ccccc4c3CCN2C1` (stereo not drawn), the EC50 is over 282 µM and the IC50 was over 282 µM.

Consider `NC(=O)c1nnn(Cc2cc(Cl)c(C(=O)c3ccc(Cl)cc3)c(Cl)c2)c1N`, for which the EC50 was over 200 µM.

As for `O=C1OC(C2Cc3ccc4ccccc4c3C2=O)c2ccccc21` (stereo not drawn), the EC50 is over 100 µM and the IC50 was determined as 74.1 µM.

As for `Cc1ccc2c(c1)C1(C)OC(C=CC1=O)O2` (stereo not drawn), the EC50 was over 3.16 µM and the IC50 was found to be 0.525 µM.

`Cc1cccc2c1CC1(Cc3ccccc3C1=O)C2=O` (stereo not drawn): the EC50 is over 200 µM and the IC50 was over 200 µM.

Regarding `N#C/C(=C\c1ccc(O)c(O)c1)C(=O)NCCN1CCN(C(=O)/C(C#N)=C/c2ccc(O)c(O)c2)CC1`, the EC50 was over 200 µM and the IC50 came out at 26.3 µM.

`O=C(Cn1c2c(c3ccccc31)CCCC2)NC1CCCCC1`: the EC50 is over 200 µM and the IC50 was over 200 µM.

For `O=[N+]([O-])c1ccc(CSc2nn(Cc3ccc([N+](=O)[O-])cc3)cc3ncnc2-3)cc1`, the EC50 was over 200 µM and the IC50 was 19.5 µM.

Take `Nc1nc(Cl)nc(NCc2ccccc2)n1`: the EC50 is over 200 µM and the IC50 was over 200 µM.

Take `CCOC(=O)/C(C(=O)c1ccc[nH]1)=C1/CCCN1C`: the EC50 was over 200 µM and the IC50 was determined as 129 µM.

Regarding `CC(=O)OC1C(OC(C)=O)[C@@]2(C)C(C(OC(C)=O)[C@@H]3C2C(C)C=C2OC(=O)[C@@](C)(O)[C@@]23C)[C@H]2C1[C@]1(C)C(C[C@@H]3O[C@@H]3C1OC(C)=O)C(=O)[C@@H]2O` (stereo partly drawn), the result was inactive.

Take `O=C(OCc1ccccc1)N1CCNCCNCC1`: the EC50 was over 200 µM and the IC50 is over 200 µM.

With `CN(C)C(=Nc1nc(=[N+](C)C)ss1)N(C)C`, the result was inactive.

`CO/C=N/c1cn2c(n1)CN=C2`: the EC50 is over 200 µM and the IC50 was over 200 µM.

As to `S=C1SC2(CCCCCC2)NC2=C1CCCCC2`, the EC50 is over 25.7 µM and the IC50 came out at 15.8 µM.

As to `CC1(C)OC(=O)C(=Cc2cccc(Br)c2)C(=O)O1`, the EC50 was over 794 µM and the IC50 is 1.86 µM.

On to `CC/C=C\C/C=C\C/C=C\C/C=C\CCC(=O)OC(COC(=O)CCCCCCC/C=C\C/C=C\C/C=C\CC)COC1OC(CO)C(O)C(O)C1O` (stereo not drawn), for which the EC50 was over 38 µM and the IC50 was over 38 µM.

`C/C(=N\NS(=O)(=O)c1ccc(C)cc1)C(CN(C)C)C(c1ccccc1)c1c(O)c2ccccc2oc1=O` (stereo not drawn): the EC50 was over 72.4 µM and the IC50 was over 72.4 µM.

As for `COC1CC(Br)(C#N)C1` (stereo not drawn), the result was inactive.

In the case of `Cc1c(/C=N/NC(=O)c2ccccc2O)c(=O)n(-c2ccccc2)n1C`, the EC50 was over 200 µM and the IC50 was found to be 69.2 µM.

On to `Cc1nc2c(n1-c1ccc(Br)cc1)C(=O)c1ccccc1C2=O`, for which the EC50 was over 49 µM and the IC50 came out at 5.25 µM.

Turning to `O=C(O)COc1ccc(C(=O)/C(SS/C(C(=O)c2ccc(OCC(=O)O)c(Cl)c2Cl)=C2\C=C(c3ccccc3Cl)SS2)=C2/C=C(c3ccccc3Cl)SS2)c(Cl)c1Cl`, the EC50 was over 35.5 µM and the concentration for half-maximal inhibition (IC50) was over 35.5 µM.

Regarding `CN1C(=O)C2C(=O)N(Cc3ccccc3)CC(=O)N2c2cccnc21` (stereo not drawn), the EC50 is over 200 µM and the IC50 was over 200 µM.

As to `CC12C(=O)CC(CC1=O)C2(C)C`, the EC50 was over 200 µM and the IC50 was over 200 µM.

For `Nc1nc(=O)[nH]c(N)c1N=O`, the EC50 is over 200 µM and the IC50 was over 200 µM.

As for `Cc1ccc2[nH]c3[nH]c(=S)[nH]c(=O)c3c2c1`, the EC50 is 22.4 µM and the IC50 was found to be 162 µM.

Take `Cc1cc2c(=O)[nH]nc(N)c2c(N)n1`: the EC50 is over 200 µM and the IC50 is over 200 µM.

`Cc1cc(C)nc(NC(=S)Nc2ccc(Cl)cc2)c1`: the EC50 is over 100 µM and the IC50 was over 100 µM.

Turning to `Nc1nc2c(c(-c3ccccc3Cl)n1)COC/C2=C\c1ccccc1Cl`, the outcome was inactive.

`CC(=O)C(=CC=C(c1ccc(N(C)C)cc1)c1ccc(N(C)C)cc1)C(C)=O`: the EC50 was over 5.37 µM and the IC50 amounted to 3.24 µM.

For `CC12CCC(=O)C[C@H]1CCC(OC=O)C2Br` (stereo partly drawn), the result was inactive.

In the case of `C=CCN1CCC23c4c5ccc(O)c4OC2C(=NN=C2CCC4(O)C6Cc7ccc(O)c8c7C4(CCN6CC=C)C2O8)CCC3(O)C1C5` (stereo not drawn), the EC50 is over 200 µM and the IC50 is 10.5 µM.

Regarding `NC(=O)NN=C1C[C@H]2CCCC[C@H]2C1`, the result was inactive.

Take `CC(=O)OCC1OC(n2c3c(c(-c4ccc(Cl)cc4)c(C#N)c2=S)C(=O)CC(C)(C)C3)C(OC(C)=O)C(OC(C)=O)C1OC(C)=O` (stereo not drawn): the EC50 is over 200 µM and the IC50 was 6.46 µM.

Consider `O=C1CN(CCc2ccccc2)CC(=O)N2C(c3ccccc3)CCCN12` (stereo not drawn), for which the outcome was inactive.

With `CCCN=C(N)C(C)=O`, the EC50 was over 1950 µM and the IC50 was over 1950 µM.

Regarding `O=C1ON=C2C3CC4CC12CC1(C3)C(=O)ON=C41`, the EC50 is over 200 µM and the IC50 was over 200 µM.

As to `CCCCCCCCCCCCOC1OC(COC(C)=O)C(OC(C)=O)C(OC(C)=O)C1OC(C)=O` (stereo not drawn) (tested in a mixture with another compound), the EC50 is over 38 µM and the IC50 was found to be 24 µM.

Regarding `CC1(C)C2CCC3CC(CCC#N)CCC3C21C#N` (stereo not drawn), the EC50 is over 200 µM and the IC50 is 95.5 µM.

As for `CN(C)c1ccc2nc(C(=O)O)c(=O)n(C)c2c1`, the EC50 was over 200 µM and the 50% inhibitory concentration (IC50) was over 200 µM.

For `CCCCN(C)C(=O)COc1cc2c(O)c3c(O)c(C)c4c(c13)C(=O)C(C)(O/C=C/C(OC)C(C)C(OC(C)=O)C(C)C(O)C(C)C(O)C(C)/C=C/C=C(\C)C(=O)N2)O4` (stereo not drawn), the EC50 was 28.2 µM and the IC50 was 28.8 µM.

As for `COc1ccc(/C(Cl)=C/c2ccc(Cl)c(Cl)c2)cc1`, the EC50 was over 200 µM and the IC50 was over 200 µM.

`C[C@H]1C[C@H]2[C@@H]3CCC4=CC(=O)C=C[C@]4(C)[C@@]3(F)[C@@H](O)C[C@]2(C)[C@H]1O`: the outcome was inactive.

For `NC(=O)c1csc(C2(O)COC(CO)C2O)n1` (stereo not drawn), the EC50 is over 200 µM and the half-maximal inhibitory concentration (IC50) is over 200 µM.

Regarding `CC1(c2nc3cc(Cl)c(Cl)cc3[nH]2)CCC(CO)C(C)(C)O1` (stereo not drawn), the result was inactive.

For `CNC(=O)C(C(=O)NC)n1cnc(C(=O)OC)c1O`, the EC50 is over 200 µM and the IC50 was over 200 µM.

As to `Cn1c2ccccc2c2nnc(NCCCCO)nc21`, the EC50 is over 200 µM and the IC50 is over 200 µM.

With `CCCCCCCCCCCCCCCCCCCCOC1OC(CO)C(O)C(O)C1O` (stereo not drawn), the EC50 was over 3.63 µM and the IC50 is over 3.63 µM.

Regarding `CCCCCCCCCCCCCCCCc1c(C(=O)OC)nc(NC#N)[nH]c1=O`, the EC50 is over 14.5 µM and the IC50 was over 14.5 µM.

With `CCN=C(NC(=O)c1ccc(F)cc1)SCSC(=NCC)NC(=O)c1ccc(F)cc1`, the EC50 was over 200 µM and the IC50 is over 200 µM.

As to `CCCCCCCCCCCCCCCCCCNc1nc(=O)n(C2CC(O)C(COP(=O)(O)OCC3OC(n4cc(C)c(=O)[nH]c4=O)CC3N=[N+]=[N-])O2)cc1F` (stereo not drawn), the EC50 is 0.759 µM and the IC50 came out at 3.63 µM.

As to `C[N+]12C(=O)CC3OCC=C4C[N+]5(C)CCC6(c7ccccc71)C2C3C4CC65O` (stereo not drawn), the EC50 was over 398 µM and the IC50 stood at 224 µM.

For the compound `CCOC(=N)N1CCCCC1`, the EC50 was over 200 µM and the IC50 is over 200 µM.

Take `COc1cc2ccc3c(c2oc1=O)[C@@H](OC(=O)C12CCC(C)(C(=O)O1)C2(C)C)[C@@H](OC(=O)C12CCC(C)(C(=O)O1)C2(C)C)C(C)(C)O3` (stereo partly drawn): the EC50 was 0.851 µM and the half-maximal inhibitory concentration (IC50) came out at 19.1 µM.

With `CSc1nc(-c2ccccc2)c2c(n1)-c1ccccc1CC2`, the EC50 was over 12.3 µM and the IC50 is over 12.3 µM.

`Cc1ccc(S(=O)(=O)/C(C#N)=C/NS(=S)c2ccncc2)cc1` (stereo not drawn): the result was inactive.

As to `CCOC(=O)C(NC(=O)OC(C)(C)C)C(=O)OCC`, the EC50 was over 200 µM and the IC50 is over 200 µM.

As for `CCO/C=C(\C)CC1([N+](=O)[O-])C(=O)c2ccccc2C1=O`, the outcome was inactive.

As to `Cn1c(=O)c(S(C)=O)c(O)c2ccccc21` (stereo not drawn), the EC50 is over 200 µM and the IC50 is over 200 µM.

For `O=C(CSCc1cc(S(=O)(=O)O)c2cccnc2c1O)Nc1ccc(/C=C/c2ccc(NC(=O)CSCc3cc(S(=O)(=O)O)c4cccnc4c3O)cc2S(=O)(=O)O)c(S(=O)(=O)O)c1`, the EC50 is over 200 µM and the IC50 was over 200 µM.

In the case of `N[C@@H]1c2c(Br)sc(N3CCOCC3)c2C(=O)[C@@H]1O`, the EC50 was over 200 µM and the IC50 turned out to be 105 µM.

Consider `CCOc1ccc(Nc2ccc(N=Nc3c(N)c(C)cc(N=Nc4ccc(-c5ccc(N=Nc6ccc(O)c(C(=O)O)c6)cc5)cc4)c3N)cc2S(=O)(=O)O)cc1`, for which the EC50 was 10.7 µM and the IC50 was determined as 79.4 µM.

Regarding `C/C=C(\N=C=S)C(=O)OC1C(COC(C)=O)OC([C@]2(O)CC(=O)C(=N)C(C(=O)O)=C2O)C(O)C1OC1CC(OC)C(O)([C@@H](C)OC(=O)[C@@H](C)CC)C(C)O1` (stereo partly drawn), the outcome was inactive.

Take `COc1ccccc1C1(c2c(OC)c(=O)c2=O)SCCCS1`: the EC50 is over 200 µM and the IC50 was over 200 µM.

Regarding `ClCCCCOC1CCCCO1` (stereo not drawn), the result was inactive.

As to `COC(=O)N1CC2CCCC(C2)c2ccccc21` (stereo not drawn), the EC50 is over 204 µM and the IC50 was 186 µM.
